# Test results as given in ChEMBL document CHEMBL1147805, “A new non-azole inhibitor of ABA 8'-hydroxylase: effect of the hydroxyl group substituted for geminal methyl groups in the six-membered ring” (Bioorg Med Chem Lett, 2006).
# Activity calls are given as the source filed them. The rule behind the calls is not given here.
# How the values were obtained:
# [1] = molecular target: T1, Abscisic acid 8'-hydroxylase 3 (Arabidopsis thaliana, UniProt Q9FH76); assay: Activity against CYP707A3 by rice seedling elongation assay at 1 uM; format: functional; conditions: oryza sativa
# T1 sequence (Q9FH76 whole entry): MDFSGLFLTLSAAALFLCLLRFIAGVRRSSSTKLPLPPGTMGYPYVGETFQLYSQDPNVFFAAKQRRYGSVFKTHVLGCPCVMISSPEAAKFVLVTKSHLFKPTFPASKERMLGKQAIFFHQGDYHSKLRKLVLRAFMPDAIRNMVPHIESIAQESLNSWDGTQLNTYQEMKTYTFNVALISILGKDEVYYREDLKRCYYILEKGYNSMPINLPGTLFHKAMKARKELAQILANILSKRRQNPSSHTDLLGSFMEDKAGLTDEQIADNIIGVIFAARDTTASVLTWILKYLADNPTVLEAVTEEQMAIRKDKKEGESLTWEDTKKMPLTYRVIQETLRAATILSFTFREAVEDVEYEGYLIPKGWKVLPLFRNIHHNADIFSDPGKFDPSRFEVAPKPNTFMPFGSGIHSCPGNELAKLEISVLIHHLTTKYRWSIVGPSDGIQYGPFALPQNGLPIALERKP
# [2] = molecular target: T1, Abscisic acid 8'-hydroxylase 3; assay: Inhibition of Arabidopsis recombinant CYP707A3
# Radish = assay: Induction of drought-stress tolerance in radish seedlings at 400 uM; format: functional, organism-based; conditions: Raphanus sativus
# [3] = molecular target: T1, Abscisic acid 8'-hydroxylase 3; assay: Activity against CYP707A3 by rice seedling elongation assay at 30 uM; format: functional; conditions: oryza sativa
Activity [1] [%],Ki [2] [nM],Activity [3] [%],SMILES,Activity (Radish)
22,,,CC1=CC(=O)CC(C)(C)C1(O)/C=C/C(C)=C\C(=O)O (stereo unspecified) [ABSCISIC ACID],
,1400,,C[C@H]1CCCC(C)(C)[C@@]1(O)/C=C/C=C\C(=O)O,
,,,C[C@@H]1CCC[C@H](O)[C@@]1(O)/C=C/C=C\C(=O)O (racemic),inactive
,140,96,C[C@H]1CCC[C@H](O)[C@@]1(O)/C=C/C=C\C(=O)O,Active
